Source: PMC7290078, “Agonist bias and agonist‐dependent antagonism at corticotrophin releasing factor receptors” (Pharmacology Research & Perspectives, 2020)
No end group written: not given here.

Tests used:
[1] = molecular target: T1, CRF1 receptor (hCRF1α) (Homo sapiens, UniProt P34998); assay: IP1 accumulation (IP-one Gq) in Cos7 cells transfected with hCRF1α, agonist stimulation; assay type: cell-based
T1 construct: host or cells: Cos7 cells, transient transfection (PEI), pcDNA3.0/3.1 vector
T1 sequence (P34998 24-415): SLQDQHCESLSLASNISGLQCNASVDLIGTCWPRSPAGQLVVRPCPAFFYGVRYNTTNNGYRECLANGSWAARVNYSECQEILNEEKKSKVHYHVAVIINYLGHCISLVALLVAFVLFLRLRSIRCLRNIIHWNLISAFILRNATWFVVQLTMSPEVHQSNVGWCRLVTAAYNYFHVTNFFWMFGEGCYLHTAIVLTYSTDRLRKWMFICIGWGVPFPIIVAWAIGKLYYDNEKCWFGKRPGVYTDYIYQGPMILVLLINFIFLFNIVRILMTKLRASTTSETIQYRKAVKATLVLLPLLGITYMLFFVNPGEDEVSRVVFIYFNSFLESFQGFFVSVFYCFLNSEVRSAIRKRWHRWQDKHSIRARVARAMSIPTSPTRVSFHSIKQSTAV
From the text: Plasmids containing hCRF1α and hCRF2α (GenBank accession numbers AY457172 and AY449734) were obtained from the cDNA Resource Centre (Bloomsburg University) and are referred to as CRF1 and CRF2 in this manuscript. Hemagglutinin (HA) epitope‐tagged human Calcitonin (CT) receptor (CT(a) splice variant) and myc‐tagged human RAMP1 were used as described previously. ^27 HA‐tagged human calcitonin receptor‐like receptor (CLR), N‐terminal FLAG‐tagged human RAMP3 and N‐terminal myc‐tagged human RAMP3 were a gift from Professor David Poyner (Aston University) and Professor Patrick Sexton (Monash University), respectively. […]
Cos7, HEK‐293S, and HEK‐293T cells were cultured as described previously. ^28 , ^29 Cos7 cells were originally supplied by the ATCC to Associate Professor Nigel Birch (University of Auckland). […] For transfection, cells were counted (Countess CounterTM; Life Technologies) and plated at a density of 20 000 cells per well in 96‐well plates. […]
The IP‐one Gq assay kit (Cisbio) was used to quantify accumulated myo‐inositol‐1‐phosphate (IP1), a by‐product of IP3 produced after receptor‐mediated Gαq activation in Cos7 and HEK‐293S cells. […] Fifteen microliters of sample was then transferred to a 384‐well optiplate and read by an Envision plate reader (PerkinElmer). IP1 concentrations were calculated from a standard curve generated in duplicate. […]

[2] = molecular target: T2, CRF2 receptor (hCRF2α) (Homo sapiens, UniProt Q13324); assay: IP1 accumulation (IP-one Gq) in Cos7 cells transfected with hCRF2α, agonist stimulation; assay type: cell-based
T2 construct: host or cells: Cos7 cells, transient transfection (PEI), pcDNA3.0/3.1 vector
T2 sequence (Q13324 1-411): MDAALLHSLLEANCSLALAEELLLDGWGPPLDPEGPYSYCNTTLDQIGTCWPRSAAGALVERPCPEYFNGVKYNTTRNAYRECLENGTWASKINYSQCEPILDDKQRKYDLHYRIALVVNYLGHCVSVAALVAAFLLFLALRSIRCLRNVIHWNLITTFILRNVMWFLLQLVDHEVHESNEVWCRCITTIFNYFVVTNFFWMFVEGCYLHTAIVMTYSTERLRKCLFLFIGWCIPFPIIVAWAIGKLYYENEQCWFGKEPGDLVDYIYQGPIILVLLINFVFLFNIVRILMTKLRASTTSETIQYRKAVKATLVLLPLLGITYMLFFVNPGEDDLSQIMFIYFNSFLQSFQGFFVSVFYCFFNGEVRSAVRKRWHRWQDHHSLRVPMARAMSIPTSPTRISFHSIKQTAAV
From the text: Plasmids containing hCRF1α and hCRF2α (GenBank accession numbers AY457172 and AY449734) were obtained from the cDNA Resource Centre (Bloomsburg University) and are referred to as CRF1 and CRF2 in this manuscript. Hemagglutinin (HA) epitope‐tagged human Calcitonin (CT) receptor (CT(a) splice variant) and myc‐tagged human RAMP1 were used as described previously. ^27 HA‐tagged human calcitonin receptor‐like receptor (CLR), N‐terminal FLAG‐tagged human RAMP3 and N‐terminal myc‐tagged human RAMP3 were a gift from Professor David Poyner (Aston University) and Professor Patrick Sexton (Monash University), respectively. N‐terminal FLAG‐tagged human RAMP2 was used as described previously. ^28 All receptors and RAMPs were cloned in pcDNA3.0 or pcDNA3.1 plasmid vectors. All plasmid inserts were sequenced at the Centre for Genomics, Proteomics and Metabolomics (University of Auckland) and the sequences were verified prior to use.
Cos7, HEK‐293S, and HEK‐293T cells were cultured as described previously. ^28 , ^29 Cos7 cells were originally supplied by the ATCC to Associate Professor Nigel Birch (University of Auckland). HEK‐293S cells were a gift from Professor David Poyner (Aston University) and HEK‐293T cells a gift from Professor John Taylor (University of Auckland). Briefly, all cell lines were cultured in Dulbecco's Modified Eagle Medium (DMEM) supplemented with 8% heat inactivated fetal bovine serum (FBS) and maintained in a humidified incubator at 37°C with 5% CO2. For transfection, cells were counted (Countess CounterTM; Life Technologies) and plated at a density of 20 000 cells per well in 96‐well plates. The cells were transiently transfected 48 hours prior to assaying using polyethylenimine (PEI), as described previously. ^28 , ^29 In all experiments a total of 0.25 μg DNA was transfected per well. In the majority of experiments 0.25 μg DNA of receptor‐containing plasmid or the pcDNA3.1 plasmid without an insert was used. For experiments involving RAMPs, 0.125 μg of receptor DNA and 0.125 μg of RAMP‐containing plasmid DNA were transfected to give a 1:1 ratio of receptor to RAMP. Where the RAMP or receptor were transfected alone, the ratio of DNA was made up with the pcDNA3.1 plasmid.
The IP‐one Gq assay kit (Cisbio) was used to quantify accumulated myo‐inositol‐1‐phosphate (IP1), a by‐product of IP3 produced after receptor‐mediated Gαq activation in Cos7 and HEK‐293S cells. Briefly, culture media was removed and replaced with DMEM containing 0.1% BSA for 30 minutes at 37°C. Cells were then incubated with media containing 50 mmol/L lithium chloride (LiCl) for an additional 0‐120 minutes (time courses) or 90 minutes at 37°C in the presence or absence of an antagonist. Agonist concentrations of 1 pmol/L to 10 µmol/L were used for agonist only assays or 10 pmol/L to 10 µmol/L concentrations for antagonist experiments. After cell stimulation, 14 µL of stimulation buffer was added to each well. Three microlitres of each detection antibody were added in turn to the plate and incubated at room temperature for 1 hour. Fifteen microliters of sample was then transferred to a 384‐well optiplate and read by an Envision plate reader (PerkinElmer). IP1 concentrations were calculated from a standard curve generated in duplicate.
In all experiments the position of peptides and antagonists (pharmacology) or transfected receptors (ELISAs) on assay plates was randomized during each independent experiment, which are independent biological replicates. […]

IVLSLDVPIGLLQILLEQARARAAREQATTNARILARVGHC-NH2 (C-terminus assumed) [UCN2]
concentration‐dependent increase in IP1 accumulation ([1]; CRF1 receptor): not UCN2 and UCN3 exhibited a concentration‐dependent increase
concentration‐dependent increase in IP1 accumulation ([2]; CRF2 receptor): concentration‐dependent increases
Hill slope ([2]; IP1, CRF2 receptor): not significantly different from one
Δlog(τ/K A) (relative efficacy) ([2]; IP1, hCRF2α, reference agonist UCN1, mean ± SEM, n = 5): −1.42 ± 0.13
ΔΔlog(τ/K A) (signaling bias) ([2]; IP1 relative to cAMP, hCRF2α, reference agonist UCN1, mean ± SEM, n = 5): −0.87 ± 0.23

DNPSLSIDLTFHLLRTLLELARTQSQRERAEQNRIIFDSV-NH2 [UCN1]
EC50 ([1]; IP1, hCRF1α, Cos7, 90 min at 37°C, 50 mmol/L LiCl, 1 pmol/L to 10 µmol/L agonist, mean ± SEM, n = 5): 7.76 nM
EC50 ([2]; IP1, hCRF2α, Cos7, 90 min at 37°C, 50 mmol/L LiCl, 1 pmol/L to 10 µmol/L agonist, mean ± SEM, n = 5): 4.68 nM
